Assay results as given in ChEMBL document CHEMBL3217579, “Prodrug ionic liquids: functionalizing neutral active pharmaceutical ingredients to take advantage of the ionic liquid form” (Medchemcomm, 2013).

Assays:
[1] = Prodrug conversion in simulated gastric fluid assessed as acetominophen formation at pH 1.2 after 210 mins; type: ADME, Stomach; details: simulated gi fluid, pH 1.2, 3.5 h
[2] = Prodrug conversion in simulated intestinal fluid assessed as acetominophen formation at pH 6.8 after 210 mins; type: ADME; details: simulated gi fluid, pH 6.8, 3.5 h
[3] = Prodrug conversion in PBS buffer assessed as acetominophen formation at pH 7.4 after 210 mins; type: physicochemical; details: pH 7.4, 3.5 h

Measured: Drug metabolism

CC(=O)Nc1ccc(OC(=O)Cn2cc[n+](C)c2)cc1.[Cl-]
Active: all assays above
